Test results from EP4173621A1 (priority 2021, dated 2023).
Read-outs that look alike come from different tables or passages of the source.

Experiments:
[1] = test system: lentiviral vectors pseudotyped with the SARS-CoV-2 Spike protein (CoV-2 LV); test: microbe, parasite or virus in culture; type: cell-based; conditions: Severe acute respiratory syndrome coronavirus 2; 293-ACE2 cells (Table 1)
VSVg pseudotyped LV = type: cell-based
[2] = biological target: SARS-CoV-2 S-RBD(His)6 and human ACE2-Biot interaction (Severe acute respiratory syndrome coronavirus 2, UniProt P0DTC2); test: AlphaLISA competition assay of the S-RBD/ACE2 interaction; type: binding, SARS-CoV-2 / human; conditions: at 25 µM of drug; 3 nM of each protein
[3] = test system: SARS-CoV-2 reference strain; test: microbe, parasite or virus in culture; type: cell-based
[4] = test system: SARS-CoV-2 reference strain; test: microbe, parasite or virus in culture; type: cell-based; conditions: Severe acute respiratory syndrome coronavirus 2, Calu-3
SARS-CoV-2 = test: Antiviral activity summarised over all the cell lines; type: cell-based
HEK293T-ACE2 = conditions: HEK-293T cell line, within the 0-50µM range
A549-ACE2 = conditions: A549 cell line, within the 0-50µM range
Calu3 = Calu3 cell line, within the 0-50µM range
Caco2 = Caco2 cell line, within the 0-50µM range
in vitro [5] = conditions: human
in vitro [6] = conditions: human; remark: listed apart in the source
in vitro [7] = conditions: human; remark: listed apart in the source

C(=C\c1nc2ccccc2s1)/c1cccc(N(c2cccc(/C=C/c3nc4ccccc4s3)c2)c2cccc(/C=C/c3nc4ccccc4s3)c2)c1 [TP m 3BTZ compound, Tris {3-(2-(benzothiazole-2-yl)vinylphenyl}amine)]
IC50 [1]: 1 µM
effect on the VSVg LVs infectivity (VSVg pseudotyped LV): without significant effect
inhibition of the formation of the RBD/ACE2 complex (AlphaLISA) [2]: 50%
inhibition of the viral replication ([3]; A549-ACE2 cells, SARS-CoV-2 reference strain, 24 hours): induced an inhibition of the viral replication
IC50 ([3]; Severe acute respiratory syndrome coronavirus 2, A549-ACE2, A 549-ACE2 cells (Table 1)): 2.5 µM
IC50 ([4]; Calu3 cells (Table 1), read-out: IC50): 5 µM
IC50 ([4]; Calu3 cells, SARS-CoV-2 reference strain, 24 hours, read-out: concentration leading to 50% inhibition of the viral replication): ~1 µM
IC50 (SARS-CoV-2; Severe acute respiratory syndrome coronavirus 2, among all the cell lines): 0.25 to 5 µM
selectivity indexes (SARS-CoV-2; among all the cell lines): > 10
selectivity index (SI) (SARS-CoV-2; based on apparent IC50 and CC50 in the different cell lines): higher than 50
cytotoxicity (MTT assay) (HEK293T-ACE2): no or poor cytoxoxicity
cytotoxicity (MTT assay) (A549-ACE2): no or poor cytoxoxicity
cytotoxicity (MTT assay) (Calu3): no or poor cytoxoxicity
cytotoxicity (MTT assay) (Caco2): no or poor cytoxoxicity
CC50 (in vitro [5]): > 50 µM
CC50 (in vitro [6]): > 50 µM
CC50 (in vitro [7]): > 50 µM
